The text below walks through data of PubChem BioAssay (NCI).

Structures are written as SMILES.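 Values below derive from 48-hour exposures of cells grown in 96-well plates, with endpoints linearly interpolated between the two concentrations bracketing the appropriate inhibition level. At the GI50, growth is halved. Definition used: TGI = concentration required for complete inhibition of growth.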 Where only a bound is given, the exact number is not on record here.

Some test systems named below: MALME-3M melanoma; K-562 leukemia; OVCAR-3 ovarian; SR leukemia; HCT-15 colon; HOP-62 NSCLC; HCC-2998 colon; RXF 393 renal; DMS 114 small cell lung; DMS 273 small cell lung.
Test in all cases: inhibition of tumour cell growth, NCI panel, 48 h

In the case of `Clc1cc(Cl)c(OCCCCCCN2CCNCC2)c(Cl)c1`, the GI50 in the assay with MALME-3M melanoma was 2190 nM; in the assay on K-562 leukemia, 1.92 µM; in the assay on OVCAR-3 ovarian, 2.76 µM; in the assay on SR leukemia, 2160 nM; in the assay on HCT-15 colon, 1820 nM; with HOP-62 NSCLC, 10.6 µM. For the same compound, the figures for the GI50 in the assay on HCC-2998 colon and with RXF 393 renal were 2000 nM and 1.7 µM, respectively. Moreover, the TGI was determined as 5.06 µM in the assay on MALME-3M melanoma; 4.24 µM in the assay with K-562 leukemia; 9.05 µM in the assay on OVCAR-3 ovarian; 5.64 µM in the assay with SR leukemia; 4.09 µM in the assay with HCT-15 colon; 26 µM in the assay with HOP-62 NSCLC. Moreover, the values for the TGI with HCC-2998 colon and in the assay on RXF 393 renal were 4.1 µM and 5.07 µM, respectively.

As to `Cn1cc(-c2nc(-c3c[nH]c4ncccc34)cs2)c2ccccc21`, the GI50 is 31900 nM in the assay with MALME-3M melanoma; 4.48 µM in the assay with K-562 leukemia; 4.46 µM in the assay on OVCAR-3 ovarian; 3720 nM in the assay on SR leukemia; 1470 nM in the assay on HCT-15 colon; 19.7 µM in the assay on HOP-62 NSCLC. Also, the values for the GI50 with HCC-2998 colon and in the assay on RXF 393 renal were 1160 nM and 17.9 µM, respectively. Also, the TGI with MALME-3M melanoma is > 100 µM; in the assay with K-562 leukemia, > 100 µM; in the assay with OVCAR-3 ovarian, 24.7 µM; in the assay with SR leukemia, > 100 µM; in the assay with HCT-15 colon, > 100 µM; in the assay with HOP-62 NSCLC, 68.4 µM. The TGI in the assay on HCC-2998 colon and in the assay on RXF 393 renal was > 100 µM each time.

In the case of `O=C(Cc1nc2ccccc2o1)C(=O)Nc1cccc(Cl)c1`, the TGI with MALME-3M melanoma, in the assay on K-562 leukemia, with OVCAR-3 ovarian, in the assay with SR leukemia, with HCT-15 colon and with HOP-62 NSCLC was > 100 µM in each case. The TGI with HCC-2998 colon, in the assay with RXF 393 renal and with DMS 114 small cell lung was > 100 µM each time.

On to `Cc1[nH]c2ccccc2c1CC/C(=N\Nc1ccccc1)c1ccccc1`, for which the TGI with MALME-3M melanoma, with DMS 273 small cell lung, in the assay with K-562 leukemia, in the assay on OVCAR-3 ovarian, with HCT-15 colon and in the assay on HOP-62 NSCLC was > 100 µM throughout. The TGI with HCC-2998 colon and in the assay on RXF 393 renal was > 100 µM each time.

Take `c1ccncc1`: the TGI in the assay with MALME-3M melanoma, in the assay on DMS 273 small cell lung, with K-562 leukemia, with OVCAR-3 ovarian, in the assay on SR leukemia and with HCT-15 colon was > 100 µM throughout. In addition, the TGI in the assay on HOP-62 NSCLC, with HCC-2998 colon and in the assay with RXF 393 renal was > 100 µM each time.

As to `COc1cc(N2C(=O)[C@H](c3ccccc3)C2c2ccc(SC)cc2)cc(OC)c1OC` (stereo not given in full), the GI50 in the assay with MALME-3M melanoma was > 100000 nM; in the assay with K-562 leukemia, 0.037 µM; in the assay with OVCAR-3 ovarian, 0.0265 µM; in the assay on SR leukemia, 41.1 nM; in the assay on HCT-15 colon it was 34 nM; with HOP-62 NSCLC it was 0.0788 µM. Moreover, the GI50 in the assay with HCC-2998 colon is 43.8 nM; in the assay on RXF 393 renal, 0.038 µM. Further, the TGI with MALME-3M melanoma was > 100 µM; with K-562 leukemia it was > 100 µM; with OVCAR-3 ovarian it was 0.0667 µM; in the assay on SR leukemia, > 100 µM; with HCT-15 colon, > 100 µM; with HOP-62 NSCLC it was > 100 µM. The TGI with HCC-2998 colon and with RXF 393 renal was > 100 µM throughout.

Consider `O=C(c1ccc(C(F)(F)F)c(Cl)c1)N(Cc1ccc(Cl)cc1)c1ccc(-c2cc(C(F)(F)F)[nH]n2)c(O)c1`, for which the GI50 was 941 nM in the assay with MALME-3M melanoma; 1.05 µM in the assay on K-562 leukemia; 0.845 µM with OVCAR-3 ovarian; 983 nM with SR leukemia; 777 nM in the assay on HCT-15 colon; 1.02 µM in the assay with HOP-62 NSCLC. Besides, the GI50 in the assay on HCC-2998 colon was 1430 nM; in the assay on RXF 393 renal, 0.923 µM. Further, the TGI in the assay with MALME-3M melanoma is 2.36 µM; with K-562 leukemia it was 5.16 µM; with OVCAR-3 ovarian, 2.19 µM; in the assay on SR leukemia, 2.87 µM; in the assay with HCT-15 colon it was 1.97 µM; in the assay with HOP-62 NSCLC it was 2.33 µM. Besides, the values for the TGI in the assay with HCC-2998 colon and in the assay on RXF 393 renal were 4.63 µM and 2.04 µM, respectively.

Regarding `Cn1cc(C2=C(c3cn(-c4ccccc4)c4ccccc34)C(=O)NC2=O)c2ccccc21`, the GI50 in the assay on MALME-3M melanoma is 14900 nM; with K-562 leukemia, 8.75 µM; with OVCAR-3 ovarian it was 14 µM; in the assay on SR leukemia, 9370 nM; in the assay with HCT-15 colon, 10700 nM; in the assay with HOP-62 NSCLC, > 25 µM. The GI50 with HCC-2998 colon is 24400 nM; in the assay with RXF 393 renal it was 10.2 µM. The TGI with MALME-3M melanoma, in the assay on K-562 leukemia, with OVCAR-3 ovarian, in the assay with SR leukemia, in the assay with HCT-15 colon and in the assay on HOP-62 NSCLC was > 25 µM each time. Further, the TGI in the assay on HCC-2998 colon and in the assay with RXF 393 renal was > 25 µM throughout.

On to `NC1CCCCC1N.O=C1C=C/C(=C(/c2ccc(O)c(Br)c2)c2ccccc2S(=O)(=O)[O-])C=C1Br.O=C1C=C/C(=C(/c2ccc(O)c(Br)c2)c2ccccc2S(=O)(=O)[O-])C=C1Br.[Pt+4]`, for which the GI50 in the assay on MALME-3M melanoma was 664 nM; in the assay on DMS 273 small cell lung, 813 nM; in the assay with K-562 leukemia, 8.79 µM; in the assay on OVCAR-3 ovarian, 13.8 µM; in the assay with HCT-15 colon, 3850 nM; in the assay on HOP-62 NSCLC it was 7.88 µM. Further, the GI50 was 4660 nM with HCC-2998 colon and 19.8 µM in the assay on RXF 393 renal. In addition, the TGI in the assay with MALME-3M melanoma is 21.3 µM; in the assay with DMS 273 small cell lung, 29.2 µM; in the assay on K-562 leukemia, > 100 µM; with OVCAR-3 ovarian, > 100 µM; in the assay on HCT-15 colon, > 100 µM; in the assay on HOP-62 NSCLC, 9.95 µM. In addition, the figures for the TGI in the assay with HCC-2998 colon and with RXF 393 renal were > 100 µM and 89.7 µM, respectively.

For `COc1ccc2c3c1OC1C(OC)(OC)C=C[C@@]4(Br)[C@@H](C2)N(CC2CC2)CC[C@]314` (stereo not given in full), the TGI in the assay on MALME-3M melanoma, in the assay with K-562 leukemia, in the assay on OVCAR-3 ovarian, with SR leukemia, in the assay with HCT-15 colon and in the assay on HOP-62 NSCLC was > 100 µM each time. Besides, the TGI with HCC-2998 colon and in the assay on RXF 393 renal was > 100 µM each time.
